Results taken from paper PMC7996900 (Microorganisms, 2021).

Target: SUMOHis6-GdpX6^GGDEF (GdpX6, PXO_02019) (Xanthomonas oryzae, UniProt A0A0K0GND9)
Assay: biochemical

SUMOHis6-GdpX6^GGDEF (GdpX6, PXO_02019), sequence (A0A0K0GND9 318-494 limits assumed): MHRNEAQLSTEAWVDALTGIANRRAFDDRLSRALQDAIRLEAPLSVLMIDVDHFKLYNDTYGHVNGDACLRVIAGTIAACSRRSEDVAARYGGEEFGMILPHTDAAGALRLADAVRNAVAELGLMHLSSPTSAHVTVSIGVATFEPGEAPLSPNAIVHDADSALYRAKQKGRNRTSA

Nc1nc2c(ncn2[C@@H]2O[C@@H]3CO[P@](=O)(O)O[C@H]4[C@@H](O)[C@H](n5cnc6c(=O)[nH]c(N)nc65)O[C@@H]4CO[P@](=O)(O)O[C@H]3[C@H]2O)c(=O)[nH]1 [c-di-GMP]
Kd: 9 ± 2.98 µM
